Where a SMILES comes first, the peptide text is derived from it.
Assays:
in vitro = in vitro ADME; settings: mouse, plasma
Description: Figure 1S. Plasma ex vivo stability profile of the ML and C23 inhibitor determined by Ultra Performance Liquid Chromatography (UPLC).

[1] = parameters: method as in PMID 25682874; settings: cited from earlier work
DU145 cells [2] = assay: LDH release acute cytotoxicity assay; type: cell-based; settings: for LDH release DU145: 4 h incubation, selected concentrations
Description: (§1) The inhibitory constant (Ki) was calculated from the IC50 values using the equation of Cheng and Prusoff. Data are the mean ± SD of three independent experiments. The concentration of peptides that inhibited cell growth by 50% (IC50) was determined by MTT cell survival assays in DU145 and LNCaP cell lines. Data represent the mean ± SEM of three independent experiments. Acute cytotoxicity of the compounds at the selected concentrations was measured by lactate dehydrogenase (LDH) assay after 4 h of incubation with DU145 cells. […] Previously published compound: [a] ref.[12]. ML inhibitor was used as control and was re-assayed in presented experiments.
(§2) DU145 and LNCaP cells were maintained at low passages (below 30) and cultured in RPMI 1640 (Wisent Bioproducts, QC) with 5 and 10% fetal bovine serum, respectively. For MTT proliferation assays 3500 LNCaP (on poly-L-lysine coated wells) or 1500 DU145 cells were seeded in 96-well plates, and after 24 h, the cells were treated with various concentrations of inhibitors (from 300 to 1 μM). Next, the cells were incubated for 72 h with peptides prior to addition of MTT reagent (Sigma–Aldrich, Canada) at a final concentration of 1 mg/mL. Formazan salt was solubilized with 50 μL DMSO and the metabolic activity was normalized relatively to vehicle-treated cells (sterile bi-distilled water). IC50 values were determined using Prism 5.0 (GraphPad Software, USA), as previously described. For LDH assay, the LDH Cytotoxicity Detection Kit (Promega, USA) was used to quantify the release of lactate dehydrogenase following membrane disruption. As described in our previous work[15], DU145 cells were seeded at a density of 3000 cells/well and allowed to incubate for 24 h. Then, the media was subsequently replaced and cells were incubated with compounds at the selected concentration. Cells treated with 1% SDS were used as a control for maximal LDH release and further relative quantification.

DU145 cells [3] = settings: 72 h
Description: as §1, §2

LNCaP cells = settings: 72 h
Description: as §1, §2

recombinant human PACE4 = target: T1, recombinant human PACE4 (Homo sapiens, UniProt P29122); assay: Enzyme kinetic inhibition of recombinant hPACE4; type: biochemical; settings: calculated from IC50 by Cheng and Prusoff, mean ± SD of three experiments
T1 construct: made in house
T1 sequence (P29122 150-969): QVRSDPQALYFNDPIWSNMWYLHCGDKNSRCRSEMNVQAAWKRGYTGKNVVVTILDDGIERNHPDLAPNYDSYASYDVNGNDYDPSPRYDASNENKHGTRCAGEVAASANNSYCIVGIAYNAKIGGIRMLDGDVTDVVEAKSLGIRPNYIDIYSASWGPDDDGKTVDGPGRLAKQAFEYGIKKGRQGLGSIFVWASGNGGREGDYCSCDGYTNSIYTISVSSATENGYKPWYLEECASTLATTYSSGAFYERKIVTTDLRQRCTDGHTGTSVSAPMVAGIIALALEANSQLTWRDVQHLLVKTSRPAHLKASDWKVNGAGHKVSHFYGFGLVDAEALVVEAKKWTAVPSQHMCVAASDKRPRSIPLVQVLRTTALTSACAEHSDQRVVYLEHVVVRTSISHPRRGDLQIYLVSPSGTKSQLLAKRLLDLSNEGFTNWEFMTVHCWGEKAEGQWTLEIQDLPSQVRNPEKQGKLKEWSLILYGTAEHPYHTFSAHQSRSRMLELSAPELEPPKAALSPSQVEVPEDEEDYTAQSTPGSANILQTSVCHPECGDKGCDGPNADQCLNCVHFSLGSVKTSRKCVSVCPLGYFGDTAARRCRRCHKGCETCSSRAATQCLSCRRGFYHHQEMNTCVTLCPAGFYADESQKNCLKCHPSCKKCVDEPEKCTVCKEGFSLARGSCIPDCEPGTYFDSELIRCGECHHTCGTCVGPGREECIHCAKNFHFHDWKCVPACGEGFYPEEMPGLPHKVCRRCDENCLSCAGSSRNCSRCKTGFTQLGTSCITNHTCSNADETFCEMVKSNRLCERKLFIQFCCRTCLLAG
Description: as §1
Enzyme kinetic measurements were performed with recombinant hPACE4 as described previously. Enzyme and substrate concentrations used in the present study are presented in Supplementary Table S2.

human PSA (hPSA) = target: T2, human PSA (hPSA) (Homo sapiens, UniProt P07288); assay: hPSA cleavage of prodrugs; type: biochemical; settings: extended incubation time up to 24 h; RP-HPLC
T2 construct: enzymatically active hPSA extracted from seminal fluid (Millipore, USA); purchased Millipore, USA; host or cells: human seminal fluid
T2 sequence (P07288 25-261): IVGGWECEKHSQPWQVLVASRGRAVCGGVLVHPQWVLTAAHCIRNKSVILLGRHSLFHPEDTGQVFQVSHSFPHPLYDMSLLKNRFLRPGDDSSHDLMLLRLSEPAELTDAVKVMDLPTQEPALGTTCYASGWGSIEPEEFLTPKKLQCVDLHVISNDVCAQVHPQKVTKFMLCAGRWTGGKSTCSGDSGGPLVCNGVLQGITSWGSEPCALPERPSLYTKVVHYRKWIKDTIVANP
Description: To determine PSA cleavage efficiency, peptide (125 µM final concentration; approximately 20 µg) were incubated with a final concentration of 20 µg/mL of enzymatically active hPSA extracted from seminal fluid (Millipore, USA) in 50 mM Tris buffer pH 7.4. Samples were analyzed by RP-HPLC (using 35 µL of the reaction solution) by comparing the resulting cleavage product over a standard curve generated using a synthetic cleaved peptide (peptides 1–4). The number of nmol of a cleaved peptide produced over time was then used to calculate the specific activity in pmol product/min/100 pmol PSA to compare the different substrate peptide between each other.

[4] = target: T3, mouse serum albumin (MSA) (Mus musculus, UniProt P07724); assay: MSA conjugation assay; type: binding; settings: PBS pH 7.4, 37 °C; RP-HPLC and MALDI-TOF
T3 construct: purchased Equitech-Bio; Inc., USA
T3 sequence (P07724 25-608): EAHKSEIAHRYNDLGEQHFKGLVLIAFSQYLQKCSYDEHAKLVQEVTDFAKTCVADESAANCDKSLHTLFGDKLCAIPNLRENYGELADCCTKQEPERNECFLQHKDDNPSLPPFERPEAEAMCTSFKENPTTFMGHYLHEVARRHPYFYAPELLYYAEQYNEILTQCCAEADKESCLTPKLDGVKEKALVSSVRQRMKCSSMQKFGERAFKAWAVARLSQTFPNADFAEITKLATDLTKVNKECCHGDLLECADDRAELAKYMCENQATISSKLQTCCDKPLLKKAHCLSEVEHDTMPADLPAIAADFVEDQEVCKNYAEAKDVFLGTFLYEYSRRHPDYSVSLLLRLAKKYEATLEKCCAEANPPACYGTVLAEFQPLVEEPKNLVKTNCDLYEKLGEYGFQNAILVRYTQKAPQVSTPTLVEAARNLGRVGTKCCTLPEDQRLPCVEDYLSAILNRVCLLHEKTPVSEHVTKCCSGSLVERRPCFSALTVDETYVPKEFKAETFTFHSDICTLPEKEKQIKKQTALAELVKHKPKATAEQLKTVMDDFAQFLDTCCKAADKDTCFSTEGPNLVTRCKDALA
Description: RP-HPLC and MALDI-TOF analysis were used to confirm completion of the reaction.

[5] = 4 h incubation with DU145 cells at 100 μM

Compound: CC(=O)N[C@H](CC(C)C)C(=O)N[C@@H](CC(C)C)C(=O)N[C@@H](CC(C)C)C(=O)N[C@@H](CC(C)C)C(=O)N[C@@H](CCCNC(=N)N)C(=O)N[C@H](C(=O)N[C@@H](CCCCN)C(=O)NCc1ccc(C(=N)N)cc1)C(C)C [C23, Ac-[DLeu]LLLRVK-amidinobenzylamide] (HELM PEPTIDE1{[ac].[dL].L.L.L.R.V.K.[N=C(N)c1ccc(CN[*:1])cc1]}$$$$V2.0)
- half-life (in vitro): 104 ± 3.6 min
- in vivo half-life (t1/2) [1]: 9 ± 3 min
- time post-injection after which rapidly eliminated ([1]; radiolabeled version): 20 min

Compound: Ac-LLLLRVKR-NH2 [ML, reference compound]
- LDH release DU145 (DU145 cells [2]): < 5%
- half-life (in vitro): 7.8 ± 2.3 min
- IC50 (DU145 cells [3]): 90 ± 2 µM
- IC50 (LNCaP cells): 130 ± 10 µM

Compound: CC(C)C[C@H](NC(=O)CCCNC(=O)[C@H](CC(C)C)NC(=O)[C@@H](N)CO)C(=O)N[C@@H](CC(C)C)C(=O)N[C@@H](CC(C)C)C(=O)N[C@@H](CC(C)C)C(=O)N[C@@H](CCCNC(=N)N)C(=O)N[C@H](C(=O)N[C@@H](CCCCN)C(=O)N[C@@H](CCCNC(=N)N)C(N)=O)C(C)C [Peptide 3] (HELM PEPTIDE1{S.L.[O=C(CCCN[*:1])[*:2]].L.L.L.L.R.V.K.R.[am]}$$$$V2.0)
- LDH release relative to the untreated cells (DU145 cells [2]; [5]): < 5%
- LDH release DU145 (DU145 cells [2]): < 5%
- Ki (recombinant human PACE4): 56 ± 4 nM

Compound: MSA-EMC-RSSYYSLLLLLRVKR-NH2 [prodrug 1]
- release of the ML derivative by hPSA (human PSA (hPSA)): no release product was detected

Compound: EMC-RSSYYSL[4-Apaa]LLLLRVKR-NH2 [Ligand 2]
- time to full conjugation to MSA [4]: 1 h

Compound: CC(C)C[C@H](NC(=O)Cc1ccc(NC(=O)[C@H](CC(C)C)NC(=O)[C@@H](N)CO)cc1)C(=O)N[C@@H](CC(C)C)C(=O)N[C@@H](CC(C)C)C(=O)N[C@@H](CC(C)C)C(=O)N[C@@H](CCCNC(=N)N)C(=O)N[C@H](C(=O)N[C@@H](CCCCN)C(=O)N[C@@H](CCCNC(=N)N)C(N)=O)C(C)C [Peptide 2] (HELM PEPTIDE1{S.L.[O=C(Cc1ccc(N[*:1])cc1)[*:2]].L.L.L.L.R.V.K.R.[am]}$$$$V2.0)
- LDH release relative to the untreated cells (DU145 cells [2]; 4 h incubation with DU145 cells at the IC50 concentration): < 5%
- LDH release DU145 (DU145 cells [2]): < 5%
- IC50 (DU145 cells [3]): 19 ± 7 µM
- IC50 (LNCaP cells): 50 ± 10 µM
- Ki (recombinant human PACE4): 68 ± 10 nM

Compound: CC(C)C[C@H](NC(=O)COCCOCCNC(=O)[C@H](CC(C)C)NC(=O)[C@@H](N)CO)C(=O)N[C@@H](CC(C)C)C(=O)N[C@@H](CC(C)C)C(=O)N[C@@H](CC(C)C)C(=O)N[C@@H](CCCNC(=N)N)C(=O)N[C@H](C(=O)N[C@@H](CCCCN)C(=O)N[C@@H](CCCNC(=N)N)C(N)=O)C(C)C [Peptide 4] (HELM PEPTIDE1{S.L.[O=C(COCCOCCN[*:1])[*:2]].L.L.L.L.R.V.K.R.[am]}$$$$V2.0)
- LDH release relative to the untreated cells (DU145 cells [2]; [5]): < 5%
- LDH release DU145 (DU145 cells [2]): < 5%
- Ki (recombinant human PACE4): 62 ± 3 nM

Compound: EMC-RSSYYSLLLLLRVKR-NH2 ({EMC}-RSSYYSLLLLLRVKR-NH2) [Ligand 1]
- time to full conjugation to MSA [4]: 1 h
